Reference: the supplement of paper PMC10307832

Key:
Test in all cases: relative viability (nuclei count vs DMSO), 5 days (fraction); higher = more cells survive
[1] = compound: C1=CC=C(C(=C1)C2=CC=C(C=C2)C3=CSC4=C3C(=C(C(=O)N4)C#N)O)O + CC(C)C[C@H](NC(=O)[C@H](Cc1ccccc1)NC(=O)c1cnccn1)B(O)O [Bortezomib] (partner 0.002 µM)
Procedure, shortened: (§1)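 Lung cancer cell lines were seeded in 1536-well plates and dosed by pin tool the next day, with either a single drug or a fixed anchor-drug dose combined with five library-drug doses (not always all listed) spaced in √10 steps. Five days later, one step fixed the cells and stained their nuclei (final 0.05% Triton X-100, 1% formaldehyde, 1 ug/ml Hoechst), and nuclei were counted on 4× images. Relative viability is the nuclei count in treated wells divided by the count in vehicle wells, and each value is the median of duplicate plates.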

[2] = compound: C1=CC=C(C(=C1)C2=CC=C(C=C2)C3=CSC4=C3C(=C(C(=O)N4)C#N)O)O + CCNC(=O)c1noc(-c2cc(C(C)C)c(O)cc2O)c1-c1ccc(CN2CCOCC2)cc1 [Luminespib] (partner 0.01 µM)
Procedure, shortened: as §1

TGX 221 + Linsitinib = compound: CC1=CN2C(=O)C=C(N=C2C(=C1)C(C)NC3=CC=CC=C3)N4CCOCC4 [TGX 221] + C[C@]1(O)C[C@@H](c2nc(-c3ccc4ccc(-c5ccccc5)nc4c3)c3c(N)nccn32)C1 [Linsitinib] (partner 1 µM)
Procedure, shortened: as §1

[3] = compound: O=C(CCCCCCNC(=O)c1cnc(N(c2ccccc2)c2ccccc2)nc1)NO [Ricolinostat] + CC(=O)Nc1cccc(-n2c(=O)n(C3CC3)c(=O)c3c(Nc4ccc(I)cc4F)n(C)c(=O)c(C)c32)c1 [Trametinib] (partner 0.02 µM)
Procedure, shortened: as §1

[4] = compound: O=C(CCCCCCNC(=O)c1cnc(N(c2ccccc2)c2ccccc2)nc1)NO [Ricolinostat] + CS(=O)(=O)N1CCN(Cc2cc3nc(-c4cccc5[nH]ncc45)nc(N4CCOCC4)c3s2)CC1 [Pictilisib] (partner 1 µM)
Procedure, shortened: as §1

## NCI-H1792
[1]; first compound 0.253 µM
  relative viability: 0.866
[1]; first compound 0.8 µM
  relative viability: 1.1
[1]; first compound 2.53 µM
  relative viability: 1.03
[1]; first compound 8 µM
  relative viability: 0.425
[2]; first compound 0.253 µM
  relative viability: 0.576
[2]; first compound 0.8 µM
  relative viability: 0.641
[2]; first compound 2.53 µM
  relative viability: 0.473
[2]; first compound 8 µM
  relative viability: 0.288
TGX 221 + Linsitinib; first compound 0.08 µM
  relative viability: 0.501
TGX 221 + Linsitinib; first compound 0.253 µM
  relative viability: 0.553
TGX 221 + Linsitinib; first compound 0.8 µM
  relative viability: 0.361
TGX 221 + Linsitinib; first compound 2.53 µM
  relative viability: 0.435
TGX 221 + Linsitinib; first compound 8 µM
  relative viability: 0.326
[3]; first compound 0.253 µM
  relative viability: 0.486
[3]; first compound 0.8 µM
  relative viability: 0.418
[3]; first compound 2.53 µM
  relative viability: 0.468
[4]; first compound 0.08 µM
  relative viability: 0.248
[4]; first compound 0.253 µM
  relative viability: 0.281
[4]; first compound 0.8 µM
  relative viability: 0.243
[4]; first compound 2.53 µM
  relative viability: 0.169
